This is an account of results in ChEMBL document CHEMBL1201862, “PubChem BioAssay data set” (2004).

Assay [1] has as its target Voltage-dependent T-type calcium channel subunit alpha-1H (Homo sapiens, UniProt O95180). The format is functional.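 Also: channel activity triggered by adding a high calcium stimulation buffer.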
Assay [2] addresses T1, Long-chain-fatty-acid--AMP ligase FadD28 (Mycobacterium tuberculosis, UniProt P9WQ59).
T1 sequence (P9WQ59 whole entry): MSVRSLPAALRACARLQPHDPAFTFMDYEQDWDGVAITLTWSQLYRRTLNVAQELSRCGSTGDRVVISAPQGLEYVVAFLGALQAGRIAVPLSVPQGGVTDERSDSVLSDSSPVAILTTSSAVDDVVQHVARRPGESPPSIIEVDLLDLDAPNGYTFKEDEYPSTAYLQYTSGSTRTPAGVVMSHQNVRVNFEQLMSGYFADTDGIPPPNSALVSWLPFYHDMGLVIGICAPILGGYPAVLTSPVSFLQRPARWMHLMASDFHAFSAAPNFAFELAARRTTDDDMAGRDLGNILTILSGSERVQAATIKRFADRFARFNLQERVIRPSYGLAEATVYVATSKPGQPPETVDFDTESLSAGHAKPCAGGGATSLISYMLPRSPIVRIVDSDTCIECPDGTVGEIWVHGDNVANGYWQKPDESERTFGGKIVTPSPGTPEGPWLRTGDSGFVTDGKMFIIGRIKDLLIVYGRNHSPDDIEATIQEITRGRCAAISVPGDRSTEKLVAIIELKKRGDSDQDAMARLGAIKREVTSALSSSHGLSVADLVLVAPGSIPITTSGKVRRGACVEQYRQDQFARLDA
Kind of assay: Fluorescence polarization aasay to screen for inhibitors that compete for the binding of FadD28 to a bisubstrate Measured in Biochemical System Using Plate Reader - 2147-01_Inhibitor_Dose_CherryPick_Activity. The assay is classed as functional, Mycobacterium tuberculosis H37Rv.

Assay [3] in a line: inhibitors of firefly luciferase expression or activity, dose response, H4 neuroglioma cells, luminescence (AID 1990). The assay is classed as functional, cell-based.
Assay [4] is described as follows: inhibitors of SNCA 5'UTR-driven reporter translation, confirmation, H4 neuroglioma cells, luminescence (AID 1988). The format is functional, cell-based.
Assay [5] is described as follows: Luminescence Cell-Based Dose Response HTS to Identify Inhibitors of 5'UTR Stem-Loop Driven Prion Protein mRNA Translation in H4 Neuroglioblastoma Cells. [Related pubchem assays: 1827 (Project Summary), 1813 (Primary HTS)]. The assay is classed as functional.
Assay [6] addresses Eukaryotic translation initiation factor 4E (Mus musculus, UniProt P63073). The assay is described as follows: eIF4E–eIF4G protein interaction inhibitors, dose response, biochemical, TR-FRET (AID 855).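 Also: potency for disrupting eIF4E binding to eIF4GI seen as loss of FRET.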 The assay is classed as functional.
Assay [7] has as its target T2, Fatty acid synthase (Homo sapiens, UniProt P49327). The assay is described as follows: FAS thioesterase domain inhibitors, dose response, biochemical, endpoint fluorescence intensity, uHTS hits (AID 624327).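 Also: fluorescence from hydrolysis of an O-methyl fluorescein acyl ester substrate by the enzyme.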 The assay is classed as functional.
Assay [8] concerns the target T2, Fatty acid synthase. The assay is described as follows: FAS thioesterase domain inhibitors, dose response, biochemical, kinetic fluorescence intensity (AID 624326).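 Also: rate of fluorescence rise from hydrolysis of a fluorogenic O-methyl fluorescein ester substrate.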 The assay is classed as functional.
Assay [9] concerns the target DNA dC->dU-editing enzyme APOBEC-3G (Homo sapiens, UniProt Q9HC16). Kind of assay: Dose Response confirmation of small molecule APOBEC3G DNA Deaminase Inhibitors via a fluorescence-based single-stranded DNA deaminase assay. [Related pubchem assays (depositor defined):AID493012, AID493028]. The format is functional.
Assay [10] is described as follows: LGR2 antagonists, dose response, cell-based, HEK293, CRE-luciferase reporter, cherry pick, set 2 (AID 743343).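 Also: transfected cells were stimulated with diluted bursicon conditioned medium after compound addition.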 The assay is classed as functional.
The nature of assay [11]: MC4R antagonists, dose response, counter-screen for LGR2 antagonist project, cell-based, plate reader, cherry pick (AID 743444).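 Also: transfected HEK 293 cells stimulated with alpha-MSH peptide; potency of inhibitors of the alpha-MSH evoked signal.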 The assay is classed as functional.
Assay [12] can be described thus: HEK293 cell cytotoxicity, dose response, cytotoxicity control, plate reader, cherry-picked samples (AID 743446). The assay is classed as functional, cell-based.
Assay [13] is described as follows: A549 cell cytotoxicity, dose response, cytotoxicity control, plate reader, cherry-pick, antagonist series (AID 743412). The assay is classed as functional, cell-based.
For the next assay, the system named is P388. Kind of assay: cells. Particulars: Mus musculus. The assay is classed as functional.
The test system of a further assay is P388/ADR. Kind of assay: cells. Particulars: Mus musculus. The assay is classed as functional.
A further assay concerns SN12K1. Kind of assay: cells. The assay is classed as functional. Particulars: Homo sapiens.
A short description of assay [14]: HeLa cell cytotoxicity, dose response, cytotoxicity control for MgcRacGAP inhibitor project (AID 624300). The format is functional.
Assay [15] addresses T3, Rac GTPase-activating protein 1 (Homo sapiens, UniProt Q9H0H5).
T3 sequence (Q9H0H5 whole entry): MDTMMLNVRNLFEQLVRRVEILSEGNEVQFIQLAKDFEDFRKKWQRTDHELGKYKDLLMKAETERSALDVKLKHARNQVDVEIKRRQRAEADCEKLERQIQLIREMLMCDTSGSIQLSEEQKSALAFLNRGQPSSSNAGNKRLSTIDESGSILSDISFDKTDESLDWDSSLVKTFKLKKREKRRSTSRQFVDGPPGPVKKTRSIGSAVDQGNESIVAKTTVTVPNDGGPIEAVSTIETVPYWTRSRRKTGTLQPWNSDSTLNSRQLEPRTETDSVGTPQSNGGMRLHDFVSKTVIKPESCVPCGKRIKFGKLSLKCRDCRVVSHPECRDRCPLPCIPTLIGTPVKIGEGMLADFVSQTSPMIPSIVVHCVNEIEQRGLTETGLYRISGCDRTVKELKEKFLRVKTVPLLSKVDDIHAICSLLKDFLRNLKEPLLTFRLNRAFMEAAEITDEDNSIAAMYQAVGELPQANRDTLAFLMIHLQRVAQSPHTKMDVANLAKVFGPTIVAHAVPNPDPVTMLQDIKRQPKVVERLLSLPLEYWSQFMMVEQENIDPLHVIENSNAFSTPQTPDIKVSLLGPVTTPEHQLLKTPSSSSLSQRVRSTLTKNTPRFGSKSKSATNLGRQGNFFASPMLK
Kind of assay: MgcRacGAP GTPase-activating activity inhibitors, confirmation, biochemical, ADP Hunter fluorescence, primary and confirmatory (AID 624330). The assay is classed as functional.

The subject of another assay is H4. Kind of assay: Luminescence Cell-Based Dose Response HTS to Identify Activators of 5'UTR Stem-Loop Driven Prion Protein mRNA Translation in H4 Neuroglioblastoma Cells. [Related pubchem assays: 1829 (Project Summary), 1814 (Primary HTS)]. The assay is classed as functional. Particulars: Homo sapiens.
A short description of assay [16]: Luminescence Cell-Based Dose Response HTS to Identify Activators of Luciferase Translation or Activity in H4 […] Cells. [Related pubchem assays: 1829 (Project Summary), 1814 (Primary HTS)]. The assay is classed as functional.
A short description of assay [17]: Luminescence Cell-Based Dose Confirmation HTS to Identify Activators of 5'UTR Stem-Loop Driven Alpha-Synuclein mRNA Translation in H4 Neuroglioblastoma Cells. [Related pubchem assays: 1829 (Project Summary), 1814 (Primary HTS)]. The assay is classed as functional.
For assay [18], the target named is T4, Adenosylmethionine-8-amino-7-oxononanoate aminotransferase (Mycobacterium tuberculosis, UniProt P9WQ81).
T4 sequence (P9WQ81 whole entry): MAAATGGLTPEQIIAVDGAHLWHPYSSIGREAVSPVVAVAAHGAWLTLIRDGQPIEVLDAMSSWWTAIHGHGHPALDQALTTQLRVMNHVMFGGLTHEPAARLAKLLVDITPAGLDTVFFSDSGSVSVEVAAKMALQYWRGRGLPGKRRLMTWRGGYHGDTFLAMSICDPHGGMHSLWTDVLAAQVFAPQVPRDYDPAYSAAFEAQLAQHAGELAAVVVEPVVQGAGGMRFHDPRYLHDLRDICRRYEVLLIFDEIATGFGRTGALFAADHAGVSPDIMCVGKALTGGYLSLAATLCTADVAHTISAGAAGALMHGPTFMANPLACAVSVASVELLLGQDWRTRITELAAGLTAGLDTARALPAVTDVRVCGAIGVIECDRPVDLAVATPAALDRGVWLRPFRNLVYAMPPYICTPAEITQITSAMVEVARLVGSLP
The assay is described as follows: Mycobacterium tuberculosis BioA enzyme inhibitor Measured in Biochemical System Using Plate Reader - 2163-02_Inhibitor_Dose_CherryPick_Activity. The format is functional, Mycobacterium tuberculosis UT205.

The target in assay [19] is Heat shock protein HSP 90-alpha (Homo sapiens, UniProt P07900). The assay is classed as functional, organism-based.
A further assay concerns H9c2. Kind of assay: cells. The assay is classed as functional, cell-based. Particulars: Rattus norvegicus, H9c2, Myocardium.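 Also: confirmatory concentration-response retest of ultra-high-throughput screening hits for modulation of myocardial damage; cell death induced by hydrogen peroxide oxidative stress; compound pretreatment for 60 min then peroxide exposure for 2 h; potency is for protecting the cells against peroxide damage rather than for killing them.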

Active and inactive are the calls of the source.

Sequence of Voltage-dependent T-type calcium channel subunit alpha-1H (O95180 whole entry): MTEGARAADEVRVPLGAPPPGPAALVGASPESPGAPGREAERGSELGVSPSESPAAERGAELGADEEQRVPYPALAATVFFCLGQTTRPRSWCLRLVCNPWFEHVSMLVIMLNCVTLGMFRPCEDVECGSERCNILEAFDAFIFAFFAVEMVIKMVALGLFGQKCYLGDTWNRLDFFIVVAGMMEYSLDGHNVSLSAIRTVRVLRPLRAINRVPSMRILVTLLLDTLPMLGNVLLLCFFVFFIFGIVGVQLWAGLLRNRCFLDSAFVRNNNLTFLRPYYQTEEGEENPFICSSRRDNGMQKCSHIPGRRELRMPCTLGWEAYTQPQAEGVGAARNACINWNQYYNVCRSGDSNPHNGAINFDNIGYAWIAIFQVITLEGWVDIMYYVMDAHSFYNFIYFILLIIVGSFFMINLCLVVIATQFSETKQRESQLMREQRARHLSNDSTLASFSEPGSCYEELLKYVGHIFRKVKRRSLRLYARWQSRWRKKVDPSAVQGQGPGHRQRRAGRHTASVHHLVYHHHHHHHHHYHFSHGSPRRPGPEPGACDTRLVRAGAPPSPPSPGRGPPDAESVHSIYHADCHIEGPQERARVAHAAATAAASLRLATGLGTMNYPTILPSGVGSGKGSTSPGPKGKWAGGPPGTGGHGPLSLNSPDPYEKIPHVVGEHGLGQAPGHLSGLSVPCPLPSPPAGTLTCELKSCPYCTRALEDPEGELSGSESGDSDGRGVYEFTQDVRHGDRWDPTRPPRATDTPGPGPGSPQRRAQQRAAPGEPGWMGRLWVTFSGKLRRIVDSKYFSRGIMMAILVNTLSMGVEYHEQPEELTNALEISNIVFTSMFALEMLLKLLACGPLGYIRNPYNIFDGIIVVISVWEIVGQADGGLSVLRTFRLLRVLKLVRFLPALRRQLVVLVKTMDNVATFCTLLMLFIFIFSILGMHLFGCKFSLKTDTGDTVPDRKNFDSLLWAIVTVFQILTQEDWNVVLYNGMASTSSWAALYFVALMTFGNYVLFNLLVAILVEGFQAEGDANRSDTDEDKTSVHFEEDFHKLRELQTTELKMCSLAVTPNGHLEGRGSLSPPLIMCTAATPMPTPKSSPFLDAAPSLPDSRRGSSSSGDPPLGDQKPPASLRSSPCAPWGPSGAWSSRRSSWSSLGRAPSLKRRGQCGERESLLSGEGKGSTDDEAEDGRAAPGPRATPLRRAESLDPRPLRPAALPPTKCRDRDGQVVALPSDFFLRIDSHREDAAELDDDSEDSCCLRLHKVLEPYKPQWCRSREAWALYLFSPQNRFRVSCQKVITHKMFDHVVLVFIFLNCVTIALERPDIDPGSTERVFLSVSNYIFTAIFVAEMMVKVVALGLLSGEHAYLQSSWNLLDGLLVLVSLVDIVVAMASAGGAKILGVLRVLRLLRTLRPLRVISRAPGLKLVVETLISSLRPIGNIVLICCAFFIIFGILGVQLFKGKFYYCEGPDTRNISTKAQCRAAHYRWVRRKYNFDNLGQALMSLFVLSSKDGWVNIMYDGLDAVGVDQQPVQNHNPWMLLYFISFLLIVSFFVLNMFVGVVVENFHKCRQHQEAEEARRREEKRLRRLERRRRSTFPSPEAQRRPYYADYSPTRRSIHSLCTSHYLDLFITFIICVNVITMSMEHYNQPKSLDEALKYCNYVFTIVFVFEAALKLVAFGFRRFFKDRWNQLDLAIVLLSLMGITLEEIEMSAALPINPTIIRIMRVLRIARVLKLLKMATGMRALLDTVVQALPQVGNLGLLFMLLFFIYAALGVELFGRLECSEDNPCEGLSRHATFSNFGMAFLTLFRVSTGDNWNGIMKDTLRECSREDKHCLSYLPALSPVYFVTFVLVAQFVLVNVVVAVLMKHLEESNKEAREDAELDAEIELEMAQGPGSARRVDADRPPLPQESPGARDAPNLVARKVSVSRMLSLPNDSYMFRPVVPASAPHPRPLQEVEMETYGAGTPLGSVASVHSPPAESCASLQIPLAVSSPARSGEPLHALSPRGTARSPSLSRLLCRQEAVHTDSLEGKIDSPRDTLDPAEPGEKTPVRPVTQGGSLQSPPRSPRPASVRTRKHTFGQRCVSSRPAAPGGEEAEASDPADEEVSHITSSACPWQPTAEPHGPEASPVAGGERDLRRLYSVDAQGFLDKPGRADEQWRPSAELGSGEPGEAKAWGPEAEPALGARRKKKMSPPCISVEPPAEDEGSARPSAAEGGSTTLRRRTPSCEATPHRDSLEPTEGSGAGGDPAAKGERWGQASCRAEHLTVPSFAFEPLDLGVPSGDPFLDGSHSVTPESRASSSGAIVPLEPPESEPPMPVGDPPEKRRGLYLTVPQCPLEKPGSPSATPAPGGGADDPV
T2 sequence (P49327 whole entry, the tested form may be a part): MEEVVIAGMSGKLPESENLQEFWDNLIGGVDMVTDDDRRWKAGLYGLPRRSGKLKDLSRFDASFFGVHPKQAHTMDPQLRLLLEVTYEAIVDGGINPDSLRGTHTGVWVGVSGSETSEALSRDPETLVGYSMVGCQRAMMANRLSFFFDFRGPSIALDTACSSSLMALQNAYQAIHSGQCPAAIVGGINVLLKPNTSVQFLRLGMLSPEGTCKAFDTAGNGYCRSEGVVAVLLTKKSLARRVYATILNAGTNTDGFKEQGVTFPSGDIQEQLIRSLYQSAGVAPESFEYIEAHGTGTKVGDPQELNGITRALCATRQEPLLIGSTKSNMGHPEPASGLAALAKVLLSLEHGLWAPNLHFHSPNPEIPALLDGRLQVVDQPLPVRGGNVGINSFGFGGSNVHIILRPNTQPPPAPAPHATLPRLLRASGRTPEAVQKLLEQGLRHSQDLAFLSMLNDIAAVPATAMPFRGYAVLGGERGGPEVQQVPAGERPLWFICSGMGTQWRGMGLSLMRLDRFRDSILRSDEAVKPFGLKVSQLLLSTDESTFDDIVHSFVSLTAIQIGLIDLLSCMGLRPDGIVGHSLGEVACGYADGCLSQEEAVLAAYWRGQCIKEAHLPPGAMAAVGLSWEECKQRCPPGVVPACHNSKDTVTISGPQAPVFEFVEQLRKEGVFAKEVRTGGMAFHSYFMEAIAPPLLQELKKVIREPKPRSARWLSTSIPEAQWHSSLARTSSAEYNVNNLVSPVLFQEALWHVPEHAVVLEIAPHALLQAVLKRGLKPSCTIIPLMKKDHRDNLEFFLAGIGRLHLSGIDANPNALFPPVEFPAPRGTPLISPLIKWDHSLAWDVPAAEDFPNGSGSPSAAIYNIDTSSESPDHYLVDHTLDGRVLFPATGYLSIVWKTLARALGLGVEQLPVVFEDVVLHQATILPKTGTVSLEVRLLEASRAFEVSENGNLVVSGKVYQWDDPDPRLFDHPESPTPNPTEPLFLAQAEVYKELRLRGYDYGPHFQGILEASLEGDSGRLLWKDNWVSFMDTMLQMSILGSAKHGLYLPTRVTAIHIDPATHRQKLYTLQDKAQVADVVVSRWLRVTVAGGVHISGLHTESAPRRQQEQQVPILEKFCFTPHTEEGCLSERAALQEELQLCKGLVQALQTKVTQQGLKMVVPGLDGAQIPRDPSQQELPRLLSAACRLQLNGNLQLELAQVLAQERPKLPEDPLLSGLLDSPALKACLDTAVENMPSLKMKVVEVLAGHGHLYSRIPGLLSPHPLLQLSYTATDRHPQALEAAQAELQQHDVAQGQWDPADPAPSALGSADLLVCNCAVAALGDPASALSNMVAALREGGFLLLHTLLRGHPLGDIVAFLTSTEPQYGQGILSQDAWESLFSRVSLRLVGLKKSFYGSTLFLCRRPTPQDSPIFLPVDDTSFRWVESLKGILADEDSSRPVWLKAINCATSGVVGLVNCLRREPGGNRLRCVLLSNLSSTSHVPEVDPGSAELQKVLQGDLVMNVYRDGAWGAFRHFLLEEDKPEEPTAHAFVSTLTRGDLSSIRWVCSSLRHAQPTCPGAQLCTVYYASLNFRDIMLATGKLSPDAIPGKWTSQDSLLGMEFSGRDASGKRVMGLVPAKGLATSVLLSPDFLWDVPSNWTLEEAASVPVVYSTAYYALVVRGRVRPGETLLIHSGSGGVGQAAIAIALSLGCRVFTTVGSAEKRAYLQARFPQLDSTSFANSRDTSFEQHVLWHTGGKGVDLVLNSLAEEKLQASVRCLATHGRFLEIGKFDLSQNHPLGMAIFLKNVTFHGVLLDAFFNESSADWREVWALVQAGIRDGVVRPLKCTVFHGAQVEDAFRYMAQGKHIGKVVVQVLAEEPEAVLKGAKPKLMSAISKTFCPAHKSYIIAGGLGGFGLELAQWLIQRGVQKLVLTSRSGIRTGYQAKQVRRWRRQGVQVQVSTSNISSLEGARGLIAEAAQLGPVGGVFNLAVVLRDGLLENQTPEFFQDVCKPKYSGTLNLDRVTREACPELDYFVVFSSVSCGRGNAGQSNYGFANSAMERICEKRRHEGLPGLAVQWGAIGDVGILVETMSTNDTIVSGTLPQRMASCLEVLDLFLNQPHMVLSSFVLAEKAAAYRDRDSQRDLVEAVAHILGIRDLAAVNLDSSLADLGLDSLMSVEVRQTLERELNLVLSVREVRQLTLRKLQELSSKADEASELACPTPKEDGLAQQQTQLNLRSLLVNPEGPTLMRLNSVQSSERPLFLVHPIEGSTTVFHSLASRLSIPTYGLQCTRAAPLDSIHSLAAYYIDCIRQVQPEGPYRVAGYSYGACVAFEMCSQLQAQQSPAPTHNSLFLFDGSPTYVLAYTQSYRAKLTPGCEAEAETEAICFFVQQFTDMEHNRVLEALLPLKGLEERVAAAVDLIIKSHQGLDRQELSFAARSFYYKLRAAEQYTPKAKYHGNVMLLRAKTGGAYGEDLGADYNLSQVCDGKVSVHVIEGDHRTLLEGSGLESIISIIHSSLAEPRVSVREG
Sequence of Eukaryotic translation initiation factor 4E (P63073 whole entry, the tested form may be a part): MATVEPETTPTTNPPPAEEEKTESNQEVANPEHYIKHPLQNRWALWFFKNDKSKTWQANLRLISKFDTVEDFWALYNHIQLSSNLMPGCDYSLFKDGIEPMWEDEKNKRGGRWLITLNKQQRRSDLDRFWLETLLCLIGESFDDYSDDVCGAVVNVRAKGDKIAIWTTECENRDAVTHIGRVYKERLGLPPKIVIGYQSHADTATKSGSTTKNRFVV

`CCc1nnc(NC(=O)CC(CN(C)S(=O)(=O)c2ccccc2)c2ccccc2)s1` (centres undefined): the EC50 in assay [1] was 2.4 µM (active).

`COc1ccc(/C=C/C(=O)N(C)Cc2cccs2)cc1S(=O)(=O)N1CCOCC1`: the AC50 in assay [2] is 42.6 µM (active).

Consider `CCOC(=O)c1c(C)[nH]c(C)c1C(=O)Cn1nnc(-c2ccccc2C)n1`, for which the EC50 in assay [3] is > 60 µM (not active); in assay [4], > 120 µM (not active); in assay [5] it was 18.3 µM (active); in [1], 5.31 µM (active).

Regarding `CCS(=O)(=O)c1ccc2oc(Nc3ccc(C(C)C)cc3)nc2c1`, the IC50 is > 64 µM (inactive) in assay [6], 22.3 µM (inactive) on Fatty acid synthase [7], 12.6 µM (active) on Fatty acid synthase [8] and 20.7 µM (active) in assay [9].

Take `CCc1cc(-c2ccc3c(c2)COc2c4ccccc4nn2-3)on1`: the AC50 in assay [10] was 22.7 µM (active); in [11] it was 40.4 µM (active); in [12], 47.8 µM (active); in [13] it was > 52 µM (inactive).

Take `O=C(CCSc1nc(-c2ccco2)cc(C(F)(F)F)n1)N1CCN(c2ccccn2)CC1`: in assay [1], the EC50 is 6.47 µM (active).

For the compound `CNC(=O)ON(C(C)=O)C(=O)NC` [CARACEMIDE], the GI50 in the assay on P388 is 16.4 µM (inactive); in the assay on P388/ADR, 21.4 µM (inactive); with SN12K1, 50.9 µM (inactive).

In the case of `COc1cc2c(cc1OC)C(/C=C/c1ccco1)=NCC2`, in assay [14], the CC50 was 100 µM (active). Besides, the IC50 in assay [15] was 42.3 µM (active).

On to `CN1CCN(c2ccc(Cl)cc2NC(=O)C2COc3ccccc3O2)CC1` (centres undefined), for which the EC50 in assay [1] was 8.08 µM (active).

On to `COc1ccc(-c2nc3ccc([N+](=O)[O-])cc3c(=O)[nH]2)cc1`, for which the GI50 in the assay with P388 was > 100 µM (inactive); in the assay with P388/ADR it was > 100 µM (inactive); in the assay with SN12K1, 26 µM (inactive).

Regarding `CC1CCC2(CC1)NC(=O)N(NC(=O)CCl)C2=O` (centres undefined), the concentration giving a half-maximal response (EC50) was > 120 µM (not active) in the assay on H4, > 120 µM (not active) in assay [16] and 34.7 µM (active) in assay [17].

On to `O=C1CCC23CC(C=CC=C12)n1c(=O)n(-c2ccccc2)c(=O)n13` (centres undefined), for which the GI50 is 49.9 µM (inactive) in the assay on P388, 31 µM (inactive) in the assay with P388/ADR and > 100 µM (inactive) in the assay with SN12K1.

As for `N#C[C@H](OC1OC(COC2OC(CO)C(O)C(O)C2O)C(O)C(O)C1O)c1ccccc1` (some centres undefined), the GI50 is 232 µM (inactive) in the assay on P388, 170 µM (inactive) in the assay on P388/ADR and > 250 µM (inactive) with SN12K1.

With `CCNC(=O)[C@H]1[C@H](CO)[C@H]2Cn3c(ccc(-c4ccccc4)c3=O)[C@H]2N1C(=O)Cc1cccnc1`, the AC50 in assay [18] is 16.3 µM (active).

On to `CC1Cc2nc(SCC(=O)N3CCOCC3)n(-c3ccccc3)c(=O)c2S1` (centres undefined), for which the concentration at half-maximal activity (AC50) in [18] is 5.31 µM (active).

`CC1CC(C)CN(C(=O)CSc2nnc(-c3ccc(Cl)s3)o2)C1` (centres undefined): the EC50 in assay [1] is 10.8 µM (active).

`O=C(NC(=S)NC1CCCCCC1)c1cncc(Br)c1`: the EC50 in the assay with H4 was 7.48 µM (active); in assay [16] it was 76.3 µM (active); in assay [17], 39.6 µM (active).

Take `O=C1CC(N2CCCCCC2)C(=O)N1c1ccc2c(c1)OCO2` (centres undefined): in assay [19], the AC50 is 4.79 µM (active).

On to `COc1cc2c(c(OC)c1OC)C(=O)NCCC2`, for which the GI50 in the assay on P388, in the assay on P388/ADR and in the assay on SN12K1 was > 100 µM (inactive) throughout.

Take `CC(=O)c1ccc(N2CCN(C(=O)c3ccc4c(c3)OCO4)CC2)cc1`: in [18], the AC50 is 0.155 µM (active).

In the case of `Nn1c(SC/C=C/c2ccccc2)nnc1-c1cccnc1`, the AC50 in assay [18] was 0.311 µM (active).

As for `C=C1C(C)C2C(Cc3ccccc3)NC(=O)C23C(OC(C)=O)/C=C/C(C)(O)CC(C)C/C=C/C3C1O` (centres undefined), the GI50 with P388 is 0.608 µM (active); with P388/ADR, 2.58 µM (inactive); in the assay on SN12K1, 0.0294 µM (active).

On to `O=C(CSc1nc2c(c(=O)n1-c1ccc(Cl)cc1)SCC2)N1CCOCC1`, for which the AC50 in assay [18] was 6.81 µM (active).

Turning to `CCOc1ccc(-n2cc(-c3ccccc3)c3c(N4CCOCC4)ncnc32)cc1`, the IC50 in the assay on H9c2 is > 79 µM (inactive). The AC50 in assay [10] is 56.7 µM (active); in assay [11], 47.3 µM (active); in assay [12], > 52 µM (inactive); in [13], 36.1 µM (active).
